Laboratory results published in PMC6028453, “BrlR from Pseudomonas aeruginosa is a receptor for both cyclic di-GMP and pyocyanin” (Nature Communications, 2018).
pKd: −log10 of the molar value.

Legend:
[1] = target: T1, BrlR R67A DNA binding (Pseudomonas aeruginosa, UniProt Q9HUT5, R67A); experiment: EMSA, BrlR R67A; type: biochemical
T1 construct: His6-SUMO (N, cleaved yes); made in house; host or cells: E. coli BL21 DE3
Procedure: (§1) A 6-carboxy-fluorescein (FAM)-labeled 36-bp brlR promoter DNA (PbrlR) or 80-bp mexA/mexE promoter DNA (PmexA/PmexE) probes (~0.375 pmol), BrlR protein and varying amounts of inducers were incubated in binding buffer (10 mM Tris HCl [pH 7.4], 50 mM KCl, 1 mM DTT, […] and 5 ng/mL poly [dI-dC]) for 60 min at 25 °C. Finally, glycerol was added to a concentration of 6.5%. The samples were subjected to a 5% polyacrylamide gel electrophoresis and run in 0.5 × Tris-borate-EDTA buffer at 80 V for 1 h at room temperature. Imaging and data analyses were performed using a Typhoon Scanner (GE Healthcare) and Imagequant software. The probes used are listed in Supplementary Table 1.

[2] = target: T2, BrlR mutant R86A (Pseudomonas aeruginosa, UniProt Q9HUT5, R86A); experiment: FP binding assay, BrlR R86A
T2 construct: His6-SUMO (N, cleaved yes); made in house; host or cells: E. coli BL21 DE3
Procedure: F-c-di-GMP and F-c-di-AMP both contain a fluorophore at one of the 2′-ribose hydroxyls of c-di-GMP and c-di-AMP, respectively (Fig. 2f). To measure the binding of c-di-GMP and c-di-AMP to BrlR variants, 1 nM F-c-di-GMP or F-c-di-AMP was incubated with increasing amounts of indicated BrlR WT, BrlR mutation, or BrlR-C in reaction buffer (25 mM HEPES, 100 mM NaCl, pH 7.5) at 25 °C for 20 min. 1 nM fluorescein was incubated with BrlR WT in the same reaction buffer at 25 °C. FP measurements were conducted on a Synergy 4 Microplate Reader (BioTek) at 25 °C. All experiments were performed in triplicate. The curves were fitted to deduce binding affinities by GraphPad Prism 5.
BrlR–c-di-GMPs interactions in two separate c-di-GMP binding sites
In the first binding site, c-di-GMP is half accommodated by the antiparallel β-sheet and two residues (M1 and D35). In detail, the backbone amide protons of the first M1 residue form a hydrogen bond (H-bond) with the phosphate oxygen atom of c-di-GMP, and the side chain of R31 forms two H-bonds with the Gua1 base. The residue D35 also forms an H-bond with the Gua1 base. The aromatic ring of Y40 interacts with the Gua1 base through a hydrophobic π-π interaction. In addition, the hydroxyl group of the Y270 side chain from another subunit interacts with the phosphate 2 of c-di-GMP via an H-bond (Fig. 2d). […]

[3] = target: T3, BrlR R86A DNA binding (Pseudomonas aeruginosa, UniProt Q9HUT5, R86A); experiment: EMSA, BrlR R86A; type: biochemical
T3 construct: His6-SUMO (N, cleaved yes); made in house; host or cells: E. coli BL21 DE3
Procedure: as §1

[4] = target: T4, BrlR (Pseudomonas aeruginosa, UniProt Q9HUT5); experiment: Surface plasmon resonance (SPR) analysis; type: binding; conditions: SPR, first submitted version of the manuscript (quoted by reviewer); authors later call it a very weak artificial affinity
T4 construct: His6-SUMO (N, cleaved yes); made in house; host or cells: E. coli BL21 DE3
Procedure: The binding affinity of diverse toxic compounds for BrlR were investigated by SPR using a BIAcore-T200 apparatus (GE Healthcare). The ligand, BrlR (20 μM in 10 mM sodium acetate, pH 4.5), was immobilized on an activated CM5 sensor chip by amine coupling (BIAcore) with 4400 response units (RU), and the unreacted sites were blocked with 1.0 M ethanolamine–HCl (pH 8.5). Steady-state binding analysis was performed with injections of different molecules at different concentrations over the immobilized BrlR surface at a flow rate of 20 μL min^−1 at 25 °C. Association was measured for 180 s, followed by 120 s of dissociation in running buffer (20 mM Hepes pH 7.5, 150 mM NaCl). The sensorgrams for specific interactions were obtained by subtracting the reference unimmobilized flow cell response from that of the sample. Since BrlR only has one binding site for pyocyanin or other toxic compounds (Fig. 5a–f), the kinetic analysis of the sensorgrams from analyte interaction with the immobilized BrlR was performed by fitting the binding curves to a 1:1 binding model. To determine the steady state KD values, equilibrium responses were plotted against analyte concentrations, and the resulting curves were fitted to the steady state model in the BIAevaluation software package, version 3.0 (GE Healthcare).

[5] = target: T5, C2E mut1 DNA binding (Pseudomonas aeruginosa, UniProt Q9HUT5, D35A/R31A/Y270A/Y40A); experiment: EMSA, C2E mut1 with PbrlR DNA; type: biochemical
T5 construct: His6-SUMO (N, cleaved yes); made in house; host or cells: E. coli BL21 DE3
Procedure: as §1

T1 sequence (Q9HUT5 whole entry R67A): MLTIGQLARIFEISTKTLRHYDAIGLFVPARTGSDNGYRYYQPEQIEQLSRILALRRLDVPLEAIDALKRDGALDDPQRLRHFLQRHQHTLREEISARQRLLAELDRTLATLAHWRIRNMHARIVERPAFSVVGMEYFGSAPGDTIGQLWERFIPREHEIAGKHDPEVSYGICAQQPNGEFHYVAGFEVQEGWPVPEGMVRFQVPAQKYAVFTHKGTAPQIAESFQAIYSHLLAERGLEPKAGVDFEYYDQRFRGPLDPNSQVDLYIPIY
T3 sequence (Q9HUT5 whole entry R86A): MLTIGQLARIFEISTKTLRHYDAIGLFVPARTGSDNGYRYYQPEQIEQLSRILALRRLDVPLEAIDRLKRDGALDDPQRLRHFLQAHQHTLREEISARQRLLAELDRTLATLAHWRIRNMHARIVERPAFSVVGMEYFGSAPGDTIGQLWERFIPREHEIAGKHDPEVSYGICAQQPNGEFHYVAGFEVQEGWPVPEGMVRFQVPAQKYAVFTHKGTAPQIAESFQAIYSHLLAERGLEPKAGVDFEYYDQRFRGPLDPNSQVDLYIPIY
T2 sequence (Q9HUT5 whole entry R86A): as above
T4 sequence (Q9HUT5 whole entry): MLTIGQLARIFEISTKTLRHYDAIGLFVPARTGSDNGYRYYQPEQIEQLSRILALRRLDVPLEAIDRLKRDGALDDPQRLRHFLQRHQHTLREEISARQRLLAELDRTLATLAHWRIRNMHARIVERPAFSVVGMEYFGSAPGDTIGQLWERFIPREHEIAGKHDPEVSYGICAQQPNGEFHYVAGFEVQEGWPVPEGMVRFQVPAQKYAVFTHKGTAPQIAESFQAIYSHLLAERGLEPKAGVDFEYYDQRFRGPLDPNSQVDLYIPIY
T5 sequence (Q9HUT5 whole entry R31A/D35A/Y40A/Y270A): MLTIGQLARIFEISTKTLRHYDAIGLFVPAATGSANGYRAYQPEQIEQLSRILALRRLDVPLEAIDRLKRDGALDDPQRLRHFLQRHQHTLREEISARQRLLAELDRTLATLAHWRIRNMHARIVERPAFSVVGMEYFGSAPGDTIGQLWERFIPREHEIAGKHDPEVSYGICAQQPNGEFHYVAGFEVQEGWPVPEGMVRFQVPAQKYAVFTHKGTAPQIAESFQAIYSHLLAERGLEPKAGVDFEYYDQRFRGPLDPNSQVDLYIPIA

Compound: Nc1nc2c(ncn2[C@@H]2O[C@@H]3COP(=O)(O)O[C@H]4[C@@H](O)[C@H](n5cnc6c(=O)[nH]c(N)nc65)O[C@@H]4COP(=O)(O)O[C@H]3[C@H]2O)c(=O)[nH]1 [c-di-GMP, cyclic diguanylate monophosphate]
- DNA bound in the presence vs absence of c-di-GMP [1]: ~ 5.2 fold
- KD value (in words) [2]: like that of C2E mut2
- DNA bound in the presence vs absence of c-di-GMP [3]: ~ 1.5 fold
- pKd [4]: 2.57
- BrlR-DNA complex in the presence vs absence of c-di-GMP [5]: 1.5 fold
